Experimental data reported in publication PMC10994559 (PLOS Neglected Tropical Diseases, 2024).
Where two headings read alike, the source gives them in different places.

Columns and labels:
[1] = test system: T. cruzi trypomastigotes; test: T. cruzi viability, resazurin reduction; type: cell-based, Trypanosoma cruzi; conditions: Trypanosoma cruzi; for viability at 2.5 µM: read-out: viability, T.cruzi (2.5 µM); for viability at 25 µM: read-out: viability, T.cruzi (25 µM)
Experimental: T. cruzi (Y strain) trypomastigotes were passaged in liver infusion broth media supplemented with tryptose, NaCl, Na2HPO4, KCl, glucose, hemin, Pen-Strep (1%), 10% FCS (pH: 7.2) and kept at 28°C.
(§1) Viability of T. brucei brucei BSF and T. cruzi trypomastigotes was assayed with fluorescence resazurin reduction assay, essentially as described above. […] Next, selected compounds were tested at 2.5 μM concentration, and promising compounds subjected to 18 concentrations dose response analyses. AN3057 and AmB were used as a control drug in T. brucei and T. cruzi, respectively.

[2] = test system: L. major axenic amastigotes; test: L. major axenic amastigote viability, resazurin reduction; conditions: Leishmania major, read-out: viability, L.major amastigote (25 µM)
Experimental: L. major LV561(MHOM/IL/67/LRC-L137 JERICHO II) amastigotes were passaged in Grace insect medium supplemented with NaHCO3, 0.1% amikin and 20% of FCS (pH: 5.4) and kept at 33°C.
Exponential growth phase promastigotes of L. major or L. infantum and axenic amastigotes (L. major) were harvested and seeded in 384 well plates (white, non-transparent, tissue culture treated, flat bottom; Corning) (0.5x10^5 cells per well). Compounds were pre-dispensed into the plate with an Echo 650 acoustic dispenser (Beckman Coulter). After 72h incubation, resazurin was added (1:10 v/v) from a […] stock in PBS, followed by incubation for six hours. Then, fluorescence intensity was measured using a microplate reader (Synergy H1, BioTek) with excitation filter: 550 nm and emission filter: 590 nm. Efficient compounds were selected for the next round of viability assay with 2.5 μM concentrations of the compounds. […] All experiments were performed with AmB as a positive control drug in parallel.
Axenic amastigotes, the relevant form that persists in the infected host, were generated in the lab through established procedures, employing harsh pH (pH 5) and high temperature (33°C) conditions.

[3] = test system: intracellular L. infantum amastigotes; test: Parasite rescue assay (intramacrophage, J774 infected with L. infantum); type: cell-based, Leishmania infantum; conditions: J774, 25 µM; intracellular amastigote; read-out: viability, intracellular L. major amastigote (25 µM)
[4] = test system: L. major promastigotes; test: L. major promastigote viability, resazurin reduction; type: cell-based, Leishmania major; conditions: Leishmania major, read-out: viability, L.major promastigote (25 µM)
Text: (§2) The infectivity of the parasites was boosted by passaging in Balb/c mice and culturing the infected lymph nodes after six weeks. L. infantum (MHOM / BR / 76 / M4192) parasite was passaged in the same media formulation with 0.5% urine.

[5] = test system: T. brucei brucei BSF; test: T. brucei BSF viability, resazurin reduction; type: cell-based, Trypanosoma brucei brucei; conditions: Trypanosoma brucei; for viability at 2.5 µM: read-out: viability, T.brucei (2.5 µM); for viability at 25 µM: read-out: viability, T.brucei (25 µM); for EC50: read-out: EC50 T. brucei BSF, dose response, triplicate, ± SD (Table 2) / ± SE (S3 Table)
Experimental: T. brucei brucei (strain 427 Lister) blood stream form (BSF) parasites were passaged in complete HMI-9 media supplemented with 10% FCS, Pen-Strep (0.1%) and 2-mercaptoethanol (0.014 v/v) and kept in a 37° C CO2 incubator in filter-cap flasks.
as §1

[6] = test system: L. infantum promastigotes; test: L. infantum promastigote viability, resazurin reduction; type: cell-based, Leishmania infantum; conditions: Leishmania infantum, sheet LTC_compound_viability, value ± spread; for viability at 2.5 µM: read-out: viability, L. infantum promastigote (2.5 µM); for viability at 25 µM: read-out: viability, L. infantum promastigote (25 µM)
Text: as §2

[7] = test system: E. histolytica; test: E. histolytica viability, ATP luminescence (Cell titer glo); type: cell-based, Entamoeba histolytica; conditions: Entamoeba histolytica; for EC50: 48 h, 9 to 16-point dose response; for viability at 2.5 µM: read-out: viability, E.histolytica (2.5 µM); for viability at 25 µM: read-out: viability, E.histolytica (25 µM)
Experimental: Entamoeba histolytica (strain B2-5) was passaged in TY-1 medium (Trypticase peptone BBL, Yeast extract BBL, glucose, NaCl, K2HPO4, KH2PO4, cysteine, ascorbic acid, ammonium iron citrate, adult bovine serum, Diamond tween 80, penicillin G, amikacin (pH:6.8)) and kept in 37°C incubator in completely filled tubes with closed lid.
Viability of E. histolytica was assayed via a luminescence assay based on ATP quantification in the live cells. Briefly, 2.5x10^4 cell/ml were exposed to 25 μM of compounds in 96 well plates (non-transparent, tissue culture treated, flat bottom; SPL Life Sciences) in triplicate for 48h. Plates were incubated in sealed anaerobic bags (Oxoid AGS) together with an Anaerogen compact bag (Thermo Scientific) and anaerobic indicator (Thermo Scientific) at 37°C. Then, Cell titer glo reagent (Promega) was added to the reaction (1:5) according to manufacturers’ instruction. After 15 min of orbital shaking, followed by 10 min incubation at RT, ATP-bioluminescence was quantified at RT using a Synergy H1 plate reader (Synergy H1, BioTek). Metronidazole was included as control drug in all the assays for E. histolytica. Test compounds indicating significant growth reduction in the primary screen were subjected to potency determination. These secondary screens were essentially carried out as detailed above, but with a 9 to 16-point concentration range of the test compounds spanning 0.01–100 μM.

[8] = Cytotoxicity assay J774, resazurin reduction; type: cell-based, murine; conditions: mouse, J774 macrophage cells; for viability at 72 h, 2.5 µM: read-out: viability, J774 (2.5 µM); for viability at 72 h, 25 µM: read-out: viability, J774 (25 µM)
Experimental: Mammalian cell lines (J774 and HepG2) were passaged in RPMI media supplemented with MEM, Pen-Strep (1%) and 10% FCS. Cultures were kept at 37°C incubator with 5% CO2 in filter-cap flasks.
Murine macrophage cells (J774) and human hepatocyte carcinoma HepG2 cells were seeded at 0.5x10^5 cell/well in 384 well plates in triplicate, exposed to serial dilution of compounds, dispensed using an Echo 650 acoustic dispenser (Labcyte). After incubation for 72 h at 37°C, 5% CO2, cell viability was determined using fluorescence resazurin reduction assay (λEx: 550 nm; λEm: 590 nm).

| SMILES | viability at 2.5 µM [1] | viability at 25 µM [1] | viability at 25 µM [2] | viability at 25 µM [3] | viability at 25 µM ([4]; 72 h) | viability at 25 µM ([4]; 25 µM) | viability at 2.5 µM [5] | viability at 25 µM [5] | EC50 [5] | viability at 2.5 µM [6] | viability at 25 µM [6] | EC50 [7] | viability at 2.5 µM [7] | viability at 25 µM [7] | viability at 72 h, 2.5 µM [8] | viability at 72 h, 25 µM [8] |
| --- | --- | --- | --- | --- | --- | --- | --- | --- | --- | --- | --- | --- | --- | --- | --- | --- |
| O=C(Cc1ccc2ccccc2c1)NC(Cc1ccccc1)C(O)CN1CCN(Cc2ccccc2)CC1 (stereo not drawn) [LTC-6] | 56.4 ± 4.53% | 18.4 ± 1.57% | 73.5 ± 1.98% | 47.3 ± 9.73% | 66.2 ± 3.33% | 0.62 ± 0.39% | 91 ± 5.89% | 2.92 ± 1.26% | 5.6 ± 1.7 µM | 100.6 ± 0.6% | 0.37 ± 0.06% | 4.9 ± 1.8 µM | 86.8 ± 20.5% | 2.71 ± 1.39% | 106 ± 6.66% | 2.99 ± 2.56% |
| O=C(CCc1ccc(Br)cc1)NC(Cc1ccccc1)C(O)CN1CCN(Cc2ccccc2)CC1 (stereo not drawn) [LTC-10] | 61.1 ± 6.21% | 21.5 ± 1.69% | 74.2 ± 2.26% | 33.7 ± 12% | 65.1 ± 3.01% | 0.71 ± 1% | 99.8 ± 6.25% | 2.86 ± 1.31% | 6 ± 1.7 µM | 100.8 ± 0.96% | 0.85 ± 0.33% | 6.5 ± 1.7 µM | 73.2 ± 7% | 4.28 ± 0.62% | 99.9 ± 5.33% | 2.99 ± 1.94% |
| O=C(Cc1cccc(C(F)(F)F)c1)NC(Cc1ccccc1)C(O)CN1CCN(Cc2ccccc2)CC1 (stereo not drawn) [LTC-8] | 59.3 ± 1.4% | 33.8 ± 0.8% | 75.1 ± 2.03% | 67.2 ± 5.73% | 67.5 ± 1.55% | 0.28 ± 0.16% | 98.5 ± 6.21% | 3.15 ± 1.45% | 7.3 ± 1.7 µM | 101 ± 1.24% | 0.96 ± 0.46% | 4.4 ± 1.7 µM | 60.3 ± 6.76% | 0.54 ± 0.81% | 102 ± 8.6% | 4.16 ± 2.39% |
